Reference: ChEMBL document CHEMBL2203027, “Lanostanoids from fungi: a group of potential anticancer compounds” (J Nat Prod, 2012)
Values after ≈ are worked out from the molar mass of the structure shown. One block for each molecule: values may come before it.

How the values were obtained:
[1] = tested on: Lewis lung carcinoma cell line; assay: Antitumor activity against mouse LLC cells allografted in C57B/6 mouse assessed as tumor growth inhibition at 28 mg/kg relative to control; assay type: functional; conditions: read-out: TGI
[2] = tested on: Lewis lung carcinoma cell line; assay: Antitumor activity against mouse LLC cells allografted in C57B/6 mouse assessed as inhibition of tumor metastasis at 28 mg/kg relative to control; assay type: functional; set-up: scale not given: the % may be the effect or the level left
[3] = Inhibition of rat microsomal 5-alpha reductase assessed as inhibition of conversion of [4-14C]testosterone to [4-14C] dihydrotestosterone after 10 mins
HeLa = assay: Cytotoxicity against human HeLa cells; assay type: functional, cell-based; conditions: Homo sapiens, HeLa
[4] = tested on: Lewis lung carcinoma cell line; assay: Antitumor activity against mouse LLC cells allografted in mouse assessed as reduction in tumor size at 2 mg/kg, ip qd for 2 weeks measured on day 14 relative to control; assay type: functional; conditions: route intraperitoneal
DNA topoisomerase 1 [5] = target: T1, DNA topoisomerase 1 (Homo sapiens, UniProt P11387); assay: Inhibition of topoisomerase 1
[6] = tested on: Lewis lung carcinoma cell line; assay: Antitumor activity against mouse LLC cells allografted in mouse assessed as reduction in tumor size at 10 mg/kg, ip qd for 2 weeks measured on day 20 relative to control; assay type: functional; conditions: route intraperitoneal
[7] = tested on: Lewis lung carcinoma cell line; assay: Antitumor activity against mouse LLC cells allografted in mouse assessed as reduction in tumor size at 2 mg/kg, ip qd for 2 weeks measured on day 20 relative to control; assay type: functional; conditions: route intraperitoneal
[8] = tested on: Lewis lung carcinoma cell line; assay: Antitumor activity against mouse LLC cells allografted in mouse assessed as reduction in tumor size at 5 mg/kg, ip qd for 2 weeks measured on day 14 relative to control; assay type: functional; conditions: route intraperitoneal
T47D = assay: Cytotoxicity against human T47D cells; assay type: functional, cell-based
[9] = target: T2, DNA topoisomerase 2-alpha (Homo sapiens, UniProt P11388); assay: Inhibition of topoisomerase 2
K562 = assay: Cytotoxicity against human K562 cells; assay type: functional, cell-based
[10] = Cytotoxicity against human Hep3B cells; assay type: functional, cell-based, Hep 3B2
[11] = tested on: Lewis lung carcinoma cell line; assay: Antitumor activity against mouse LLC cells allografted in mouse assessed as reduction in tumor size at 20 mg/kg, ip qd for 2 weeks measured on day 14 relative to control; assay type: functional; conditions: route intraperitoneal
[12] = tested on: Lewis lung carcinoma cell line; assay: Antitumor activity against mouse LLC cells allografted in mouse assessed as reduction in tumor size at 5 mg/kg, ip qd for 2 weeks measured on day 20 relative to control; assay type: functional; conditions: route intraperitoneal
[13] = Cytotoxicity against mouse Meth-A cells; assay type: functional, cell-based
CCRF S-180 = assay: Cytotoxicity against mouse S180 cells; assay type: functional, cell-based
[14] = tested on: Lewis lung carcinoma cell line; assay: Antitumor activity against mouse LLC cells allografted in mouse assessed as reduction in tumor size at 10 mg/kg, ip qd for 2 weeks measured on day 14 relative to control; assay type: functional; conditions: route intraperitoneal
HepG2 = assay: Cytotoxicity against human HepG2 cells; assay type: functional, cell-based
Huh-7 = assay: Cytotoxicity against human HuH7 cells; assay type: functional, cell-based
[15] = tested on: Lewis lung carcinoma cell line; assay: Antitumor activity against mouse LLC cells allografted in mouse assessed as reduction in tumor size at 20 mg/kg, ip qd for 2 weeks measured on day 20 relative to control; assay type: functional; conditions: route intraperitoneal
[16] = Cytotoxicity against mouse LLC cells; assay type: functional, cell-based; conditions: Lewis lung carcinoma
[17] = Cytotoxicity against human 95-D cells; assay type: functional, cell-based
NUGC-3 = assay: Cytotoxicity against human NUGC3 cells; assay type: functional, cell-based
DU-145 = assay: Cytotoxicity against human DU145 cells; assay type: functional, cell-based
[18] = target: T2, DNA topoisomerase 2-alpha; assay: Inhibition of topoisomerase 2a in human HuH7 cells; assay type: cell-based, Huh-7
DNA topoisomerase 1 [19] = target: T1, DNA topoisomerase 1; assay: Inhibition of topoisomerase 1 in human HuH7 cells; assay type: cell-based, Huh-7
Bel-7402 = assay: Cytotoxicity against human Bel7402 cells; assay type: functional, cell-based
P388 [20] = assay: Cytotoxicity against mouse P388 cells; assay type: functional, cell-based
SGC-7901 = assay: Cytotoxicity against human SGC7901 cells; assay type: functional, cell-based
Mus musculus = organism: Mus musculus; assay: Inhibition of TPA-induced tumor progression in mouse skin at 0.2 umol measured at week 20; assay type: functional
J82 = assay: Growth inhibition of H-Ras expressing human J82 cells; assay type: functional
[21] = Growth inhibition of H-Ras transformed rat Rat2 cells; assay type: functional
P388 [22] = assay: Antiproliferative activity against mouse P388 cells; assay type: functional, cell-based
P388 [23] = assay: Antitumor activity against mouse P388 cells allografted in CDF1 mouse assessed as increase in survival rate at 3 mg/kg; assay type: functional
COLO 205 = assay: Cytotoxicity against human COLO205 cells; assay type: functional, cell-based
HL-60 = assay: Cytotoxicity against human HL60 cells; assay type: functional, cell-based
P388 [24] = assay: Antitumor activity against mouse P388 cells allografted in CDF1 mouse assessed as increase in survival rate at 10 mg/kg; assay type: functional
L1210 = assay: Cytotoxicity against mouse L1210 cells; assay type: functional, cell-based
A549 = assay: Cytotoxicity against human A549 cells; assay type: functional, cell-based

T2 sequence (P11388 whole entry): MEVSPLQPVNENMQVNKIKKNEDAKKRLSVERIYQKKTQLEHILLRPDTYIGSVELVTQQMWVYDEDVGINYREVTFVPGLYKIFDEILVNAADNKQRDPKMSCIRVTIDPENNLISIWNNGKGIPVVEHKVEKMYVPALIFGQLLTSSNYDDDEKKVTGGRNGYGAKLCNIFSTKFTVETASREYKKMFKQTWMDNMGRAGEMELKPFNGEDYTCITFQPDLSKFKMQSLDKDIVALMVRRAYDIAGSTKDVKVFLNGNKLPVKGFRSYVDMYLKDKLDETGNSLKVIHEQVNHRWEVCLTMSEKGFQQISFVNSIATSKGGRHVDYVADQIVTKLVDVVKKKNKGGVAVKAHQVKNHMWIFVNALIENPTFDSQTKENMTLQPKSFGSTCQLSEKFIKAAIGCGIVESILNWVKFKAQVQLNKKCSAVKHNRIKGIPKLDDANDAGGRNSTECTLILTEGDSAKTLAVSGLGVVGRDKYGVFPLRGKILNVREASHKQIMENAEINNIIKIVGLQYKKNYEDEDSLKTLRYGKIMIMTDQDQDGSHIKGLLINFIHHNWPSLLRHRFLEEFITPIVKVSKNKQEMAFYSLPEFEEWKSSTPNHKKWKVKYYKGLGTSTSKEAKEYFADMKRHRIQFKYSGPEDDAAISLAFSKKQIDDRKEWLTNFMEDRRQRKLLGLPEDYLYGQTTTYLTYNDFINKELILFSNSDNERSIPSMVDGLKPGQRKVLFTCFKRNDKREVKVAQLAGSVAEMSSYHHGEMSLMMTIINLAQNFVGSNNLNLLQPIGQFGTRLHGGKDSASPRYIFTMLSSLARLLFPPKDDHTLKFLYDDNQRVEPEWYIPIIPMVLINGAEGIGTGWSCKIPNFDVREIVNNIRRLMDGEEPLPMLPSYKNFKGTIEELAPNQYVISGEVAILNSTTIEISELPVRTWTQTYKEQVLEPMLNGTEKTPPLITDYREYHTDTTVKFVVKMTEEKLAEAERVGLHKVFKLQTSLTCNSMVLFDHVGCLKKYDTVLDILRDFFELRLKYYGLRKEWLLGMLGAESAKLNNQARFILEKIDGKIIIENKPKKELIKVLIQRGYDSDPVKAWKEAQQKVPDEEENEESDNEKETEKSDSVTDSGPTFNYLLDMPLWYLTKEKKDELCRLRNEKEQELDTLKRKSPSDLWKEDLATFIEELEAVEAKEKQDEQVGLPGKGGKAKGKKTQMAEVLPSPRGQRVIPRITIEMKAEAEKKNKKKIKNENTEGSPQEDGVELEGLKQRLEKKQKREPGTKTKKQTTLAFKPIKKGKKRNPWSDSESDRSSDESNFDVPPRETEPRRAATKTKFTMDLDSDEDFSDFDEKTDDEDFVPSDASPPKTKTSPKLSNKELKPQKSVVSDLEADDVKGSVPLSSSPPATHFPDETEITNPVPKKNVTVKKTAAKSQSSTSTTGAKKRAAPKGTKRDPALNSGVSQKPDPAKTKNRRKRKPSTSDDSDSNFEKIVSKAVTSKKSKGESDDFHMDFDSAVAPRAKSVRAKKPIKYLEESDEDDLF
T1 sequence (P11387 whole entry): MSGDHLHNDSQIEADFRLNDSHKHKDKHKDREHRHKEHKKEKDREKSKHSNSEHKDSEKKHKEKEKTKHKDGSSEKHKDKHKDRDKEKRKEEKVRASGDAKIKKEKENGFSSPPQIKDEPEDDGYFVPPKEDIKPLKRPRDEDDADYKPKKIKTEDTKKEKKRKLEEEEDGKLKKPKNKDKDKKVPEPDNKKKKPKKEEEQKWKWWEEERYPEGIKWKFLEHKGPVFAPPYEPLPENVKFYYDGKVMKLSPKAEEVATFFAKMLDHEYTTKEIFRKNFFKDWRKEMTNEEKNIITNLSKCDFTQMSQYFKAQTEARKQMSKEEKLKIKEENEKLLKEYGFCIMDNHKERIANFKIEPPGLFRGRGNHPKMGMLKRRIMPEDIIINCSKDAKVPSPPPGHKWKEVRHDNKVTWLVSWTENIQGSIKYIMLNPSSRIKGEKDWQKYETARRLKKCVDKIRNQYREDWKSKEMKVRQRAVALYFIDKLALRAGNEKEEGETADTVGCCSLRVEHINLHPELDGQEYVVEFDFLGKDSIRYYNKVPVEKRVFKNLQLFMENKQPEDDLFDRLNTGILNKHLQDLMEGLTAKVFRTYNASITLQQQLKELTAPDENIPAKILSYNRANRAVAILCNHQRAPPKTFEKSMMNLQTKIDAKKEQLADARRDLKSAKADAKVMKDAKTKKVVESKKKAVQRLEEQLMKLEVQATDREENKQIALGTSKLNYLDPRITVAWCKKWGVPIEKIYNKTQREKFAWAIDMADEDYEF

Structure (SMILES): CC(=O)O[C@@H](C/C=C(\C)C(=O)O)[C@@H](C)[C@H]1C[C@H](OC(C)=O)[C@@]2(C)C3=CC[C@H]4C(C)(C)[C@H](OC(C)=O)CC[C@]4(C)C3=CC[C@]12C [GANODERIC ACID T]
- inhibition in vivo at 28 mg/kg [1]: 63%
- Activity [2]: 78%

- IC50 [3]: 41.9 µM
Structure (SMILES): C/C(=C\CC[C@@H](C)[C@H]1C[C@H](O)[C@@]2(C)C3=CC[C@H]4C(C)(C)C(=O)CC[C@]4(C)C3=CC[C@]12C)CO
- IC50 (HeLa): 1 µM

Structure (SMILES): C[C@H](CCC=C(CO)CO)[C@H]1CC[C@@]2(C)C3=CC[C@H]4C(C)(C)C(=O)CC[C@]4(C)C3=CC[C@]12C [GANODERIOL F]
- T/C [4]: 38%
- IC50 (DNA topoisomerase 1 [5]): 106 µM
- T/C [6]: 63%
- T/C [7]: 45%
- T/C [8]: 64%
- IC50 (T47D): 3 µg/mL (≈ 6.6 µM)
- IC50 [9]: 17 µM
- IC50 (K562): 4 µM
- IC50 [10]: 25.3 µM
- T/C [11]: 48%
- T/C [12]: 79%
- IC50 [13]: 10.1 µg/mL (≈ 22.2 µM)
- IC50 (HeLa): 5 µM
- IC50 (CCRF S-180): 7.1 µg/mL (≈ 15.6 µM)
- T/C [14]: 54%
- IC50 (HepG2): 17 µM
- IC50 (Huh-7): 8.5 µM
- T/C [15]: 54%
- IC50 [16]: 2 µg/mL (≈ 4.4 µM)

Structure (SMILES): CC[C@@]1(O)C(=O)OCc2c1cc1n(c2=O)Cc2cc3cc(O)ccc3nc2-1 [HYDROXYCAMPTOTHECIN]
- IC50 [17]: 21.3 µM
- IC50 (HeLa): 29.5 µM

Structure (SMILES): C/C(=C/CC[C@@H](C)[C@H]1CC[C@@]2(C)C3=C(CC[C@]12C)[C@@]1(C)CCC(=O)C(C)(C)[C@@H]1CC3=O)C(=O)O [GANODERIC ACID DM]
- IC50 [3]: 10.6 µM
- IC50 (HeLa): 101 µM

- IC50 [9]: 4.6 µM
Structure (SMILES): C=C(CCC(C(=O)O)[C@H]1CC[C@@]2(C)C3=CC[C@H]4C(C)(C)C(=O)CC[C@]4(C)C3=CC[C@]12C)C(C)C (some centres not stated) [DEHYDROEBURICONIC ACID]
- IC50 (NUGC-3): 38.4 µM

Structure (SMILES): C=C(CC[C@@H](C(=O)O)[C@H]1[C@H](O)C[C@@]2(C)C3=CC[C@H]4C(C)(CO)C(=O)CC[C@]4(C)C3=CC[C@]12C)C(C)C (some centres not stated)
- IC50 (DU-145): 49.7 µM

Structure (SMILES): C/C(=C/CC[C@@H](C)[C@H]1C[C@H](O)[C@@]2(C)C3=CC[C@H]4C(C)(C)C(=O)CC[C@]4(C)C3=CC[C@]12C)C(=O)O [GANODERIC ACID TR]
- IC50 [3]: 8.5 µM

- IC50 [18]: 25 µM
- IC50 (DNA topoisomerase 1 [19]): 55 µM
Structure (SMILES): CC(=O)O[C@H]1C[C@H]([C@H](C)CC/C=C(\C)C(=O)O)[C@@]2(C)CC=C3C(=CC[C@H]4C(C)(C)[C@@H](O)CC[C@]34C)[C@]12C [GANODERIC ACID X]

Structure (SMILES): COc1cc([C@@H]2c3cc4c(cc3[C@@H](O[C@@H]3O[C@@H]5CO[C@@H](C)O[C@H]5[C@H](O)[C@H]3O)[C@H]3COC(=O)[C@H]23)OCO4)cc(OC)c1O [ETOPOSIDE]
- IC50 (Bel-7402): 0.08 µM
- IC50 (P388 [20]): 0.08 µM
- IC50 (SGC-7901): 0.08 µM
- IC50 (HeLa): 0.08 µM

Structure (SMILES): C=C(CC[C@@H](C(=O)O)[C@H]1[C@H](O)C[C@@]2(C)C3=CC[C@H]4C(C)(C)[C@H](OC(C)=O)CC[C@]4(C)C3=CC[C@]12C)C(C)C
- inhibition (INH) (Mus musculus): 92%

Structure (SMILES): CC(C)=CCC[C@@H](C(=O)O)[C@H]1CC[C@@]2(C)C3=CC[C@H]4C(C)(C)[C@@H](O)CC[C@]4(C)C3=CC[C@]12C [DEHYDROTRAMETENOLIC ACID]
- GI50 (J82): 26.7 µM
- GI50 [21]: 39.2 µM

Structure (SMILES): CC(C)=CC[C@@H](O)[C@@H](C)[C@H]1CC[C@@]2(C)C3=C(CC[C@]12C)[C@@]1(C)CC[C@H](O)C(C)(C)[C@@H]1CC3 [INOTODIOL]
- IC50 (P388 [22]): 13.9 µM
- survival at 3 mg/kg (P388 [23]): 9.7%
- IC50 (COLO 205): 171 µM
- IC50 (HL-60): 25 µM
- survival at 10 mg/kg (P388 [24]): 20.8%
- IC50 (L1210): 110 µM

Structure (SMILES): C=C(CC[C@@H](C(=O)O)[C@H]1[C@H](O)C[C@@]2(C)C3=CC[C@H]4C(C)(C)C(=O)CC[C@]4(C)C3=CC[C@]12C)C(C)C [POLYPORENIC ACID B]
- IC50 (A549): 19.8 µM
- inhibition (INH) (Mus musculus): 83%

- IC50 [9]: 37.5 µM
Structure (SMILES): CC(C)=CCCC(C(=O)O)[C@H]1CC[C@@]2(C)C3=CC[C@H]4C(C)(C)C(=O)CC[C@]4(C)C3=CC[C@]12C (some centres not stated) [DEHYDROTRAMETENONIC ACID]
- IC50 (NUGC-3): 63.6 µM

Structure (SMILES): CCO[C@@H]1C[C@H]2C(C)(C)[C@H](OC(C)=O)CC[C@]2(C)C2=C1[C@]1(C)[C@@H](OC(C)=O)C[C@H]([C@H](C)C(C/C=C(\C)C(=O)O)OC(C)=O)[C@@]1(C)CC2 (some centres not stated)
- IC50 [17]: 46.5 µM
- IC50 (HeLa): 59.1 µM
